This note sets out measurements from patent publication US8623811B2, “Antimicrobial peptide, compositions, and methods of use” (Revance Therapeutics, Inc., priority 2007, dated 2014).

Data set [1] concerns Tinea Pedis (Athlete's feet). As to the kind of experiment: Soak and topical use in a patient with Tinea Pedis. It counts as in vivo, human. The note with it: 0.05% peptide formulation for 5 years. From the text:
The cream formulation is composed of the excipients cetyl alcohol, isopropyl myristate, stearyl alcohol, butylated hydrosyxtoluene, polyoxyethylene stearyl ether, polyoxyethylene stearyl ether, edetate disodium, and purified water.

In another data set the test system is acne. Briefly: Topical use in a patient with acne. It counts as in vivo, human. The note with it: continued use of the formulation for two years. The source says:
A person with a two-year history of acne uses topical 5% peptide (SEQ ID NO:5) formulation twice a day for 4 weeks. The cream formulation is composed of the excipients cetyl alcohol, isopropyl myristate, stearyl alcohol, butylated hydroxytolune, polyoxyethylene stearyl ether, polyoxyethylene stearyl ether, edetate disodium, and purified water.

As for `N=C(N)NCCC[C@H](NC(=O)[C@H](CCCNC(=N)N)NC(=O)[C@H](CCCNC(=N)N)NC(=O)[C@H](CCC(N)=O)NC(=O)[C@H](CCCNC(=N)N)NC(=O)[C@H](CCCNC(=N)N)NC(=O)[C@H](CCCCN)NC(=O)[C@H](CCCCN)NC(=O)[C@H](CCCNC(=N)N)NC(=O)CNC(=O)[C@H](CCCCN)NC(=O)[C@H](CCCCN)NC(=O)[C@H](CCCCN)NC(=O)[C@H](CCCCN)NC(=O)[C@H](CCCCN)NC(=O)[C@H](CCCCN)NC(=O)[C@H](CCCCN)NC(=O)[C@H](CCCCN)NC(=O)[C@H](CCCCN)NC(=O)[C@H](CCCCN)NC(=O)[C@H](CCCCN)NC(=O)[C@H](CCCCN)NC(=O)[C@H](CCCCN)NC(=O)[C@H](CCCCN)NC(=O)[C@H](CCCCN)NC(=O)CNC(=O)[C@H](CCCNC(=N)N)NC(=O)[C@H](CCCNC(=N)N)NC(=O)[C@H](CCCNC(=N)N)NC(=O)[C@H](CCC(N)=O)NC(=O)[C@H](CCCNC(=N)N)NC(=O)[C@H](CCCNC(=N)N)NC(=O)[C@H](CCCCN)NC(=O)[C@H](CCCCN)NC(=O)[C@@H](N)CCCNC(=N)N)C(=O)O` [SEQ ID NO:5, Arg-Lys-Lys-Arg-Arg-Gln-Arg-Arg-Arg-Gly-(Lys)15-Gly-Arg-Lys-Lys-Arg-Arg-Gln-Arg-Arg-Arg], in data set [1], the “adverse event on continued use” value is “no further breakout or adverse event”. The “adverse events on continued use” value in the data set with acne is “no new breakouts or adverse events are observed”.
